Data on 3 molecules can be found in patent US9096560B2, “5-heterocyclylalkyl-3-hydroxy-2-phenylcyclopent-2-enones as herbicides” (Syngenta Limited, priority 2008, dated 2015).

What all share (assay type): in vivo
Test [1] concerns Alopecurus myosuroides (ALOMY). Description: Example A post-emergence herbicidal test, ALOMY. As to conditions: evaluated 14 or 15 days after spraying. On the procedure:
(§1) Seeds of a variety of test species were sown in standard soil in pots. After cultivation for one day (pre-emergence) or after 10 days cultivation (post-emergence) under controlled conditions in a glasshouse, the plants were sprayed with an aqueous spray solution derived from the formulation of the technical active ingredient in 0.6 ml acetone and 45 ml formulation solution containing 10.6% Emulsogen EL (Registry number 61791-12-6), 42.2% N-methylpyrrolidone, 42.2% dipropylene glycol monomethyl ether (Registry number 34590-94-8) and 0.2% X-77 (Registry number 11097-66-8). The test plants were then grown in a greenhouse under optimum conditions until, 14 or 15 days later for post-emergence and 19 or 20 days for pre-emergence, the test was evaluated (100=total damage to plant; 0=no damage to plant). Alopecurus myosuroides (ALOMY), Avena fatua (AVEFA), Lolium perenne (LOLPE), Setaria faberi (SETFA), Digitaria sanguinalis (DIGSA), Echinochloa crus-galli (ECHCG) Post-Emergence Activity

Test [2] relates to Echinochloa crus-galli (ECHCG). Description: Example A post-emergence herbicidal test, ECHCG. The conditions noted are these: evaluated 14 or 15 days after spraying. On the procedure:
as §1

For test [3], the system named is Digitaria sanguinalis (DIGSA). Description: Example A pre-emergence herbicidal test, DIGSA. As to conditions: rate 500 g/ha, evaluated 19 or 20 days after spraying. On the procedure:
as §1, with “Pre-Emergence” for “Post-Emergence”

The subject of test [4] is Avena fatua (AVEFA). Description: Example A pre-emergence herbicidal test, AVEFA. As to conditions: rate 500 g/ha, evaluated 19 or 20 days after spraying. On the procedure:
as §1, with “Pre-Emergence” for “Post-Emergence”

For test [5], the system named is Digitaria sanguinalis (DIGSA). Description: Example A post-emergence herbicidal test, DIGSA. The conditions noted are these: evaluated 14 or 15 days after spraying. On the procedure:
as §1

In test [6] the test system is Lolium perenne (LOLPE). Description: Example A post-emergence herbicidal test, LOLPE. The conditions noted are these: evaluated 14 or 15 days after spraying. How it is done: as §1
Test [7] has as its system Avena fatua (AVEFA). Description: Example A post-emergence herbicidal test, AVEFA. As to conditions: evaluated 14 or 15 days after spraying. On the procedure: as §1
The subject of test [8] is Setaria faberi (SETFA). Description: Example A post-emergence herbicidal test, SETFA. As to conditions: evaluated 14 or 15 days after spraying. How it is done: as §1
The test system of test [9] is Echinochloa crus-galli (ECHCG). Description: Example A pre-emergence herbicidal test, ECHCG. The conditions noted are these: rate 500 g/ha, evaluated 19 or 20 days after spraying. How it is done: as §1, with “Pre-Emergence” for “Post-Emergence”
Test [10] has as its system Setaria faberi (SETFA). Description: Example A pre-emergence herbicidal test, SETFA. As to conditions: rate 500 g/ha, evaluated 19 or 20 days after spraying. How it is done:
as §1, with “Pre-Emergence” for “Post-Emergence”

The subject of test [11] is Lolium perenne (LOLPE). Description: Example A pre-emergence herbicidal test, LOLPE. As to conditions: rate 500 g/ha, evaluated 19 or 20 days after spraying. How it is done:
as §1, with “Pre-Emergence” for “Post-Emergence”

The subject of test [12] is Alopecurus myosuroides (ALOMY). Description: Example A pre-emergence herbicidal test, ALOMY. The conditions noted are these: rate 500 g/ha, evaluated 19 or 20 days after spraying. How it is done:
as §1, with “Pre-Emergence” for “Post-Emergence”

Test [13] relates to Lolium perenne (LOLPE). Description: Example B post-emergence herbicidal test, LOLPE. The conditions noted are these: Lolium perenne, 312 h, rate 250 g/ha, evaluated after 13 days, scale 0-100, read-out: Post-emergence activity LOLPE (100=total damage to plant; 0=no damage to plant). The method, boiled down: (§2)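 Plants grown from seed in standard soil for 8 days in a glasshouse (24/16 °C day/night, 14 h light, 65% humidity), then sprayed with an aqueous solution from the active ingredient formulated in acetone/water (50:50) with 0.5% Tween 20. Damage scored after 13 days, 0 (none) to 100 (total).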

The test system of test [14] is Winter Wheat variety 'Hereward' seed treated with cloquintocet mexyl. Description: Example C crop damage test on Winter Wheat seed treated with safener cloquintocet mexyl, post-emergence. The conditions noted are these: rate 250 g/ha, seed treated with cloquintocet mexyl 0.5 grams per kilogram of dry seed, evaluated after 13 days. An outline of the steps: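 Hereward winter wheat seed treated with cloquintocet mexyl at 0.5 g/kg seed, sown 8 days before post-emergence spray. The spray was made from a formulation in acetone/water 50:50 with 0.5% Tween 20. Grown in a glasshouse at 24/16 °C with 14 h light and 65% humidity; damage scored 0–100 (100 = total) after 13 days.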

The subject of test [15] is Avena fatua (AVEFA). Description: Example B pre-emergence herbicidal test, AVEFA. As to conditions: Avena fatua, 312 h, rate 250 g/ha, evaluated after 13 days, 100=total damage to plant, 0=no damage to plant. The method, boiled down: (§3)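 Pre-emergence spray one day after sowing; vehicle acetone/water (50:50), 0.5% Tween 20. Percent damage (0 = no effect, 100 = plant killed) recorded 13 days later.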

Test [16] has as its system Lolium perenne (LOLPE). Description: Example B pre-emergence herbicidal test, LOLPE. The conditions noted are these: Lolium perenne, 312 h, rate 250 g/ha, evaluated after 13 days, 100=total damage to plant, 0=no damage to plant. An outline of the steps:
as §3

For test [17], the system named is Echinochloa crus-galli (ECHCG). Description: Example B pre-emergence herbicidal test, ECHCG. As to conditions: Echinochloa crus-galli, 312 h, rate 250 g/ha, evaluated after 13 days, 100=total damage to plant, 0=no damage to plant. An outline of the steps:
as §3

Test [18] relates to Alopecurus myosuroides (ALOMY). Description: Example B post-emergence herbicidal test, ALOMY. The conditions noted are these: Alopecurus myosuroides, 312 h, rate 250 g/ha, evaluated after 13 days, scale 0-100, read-out: Post-emergence activity ALOMY (100=total damage to plant; 0=no damage to plant). An outline of the steps: as §2
The subject of test [19] is Avena fatua (AVEFA). Description: Example B post-emergence herbicidal test, AVEFA. As to conditions: Avena fatua, 312 h, rate 250 g/ha, evaluated after 13 days, scale 0-100, read-out: Post-emergence activity AVEFA (100=total damage to plant; 0=no damage to plant). The method, boiled down: as §2
Test [20] deals with Winter Wheat variety 'Hereward'. Description: Example C crop damage test on Winter Wheat, post-emergence, no safener. The conditions noted are these: Triticum aestivum, 312 h, rate 250 g/ha, evaluated after 13 days, read-out: Winter Wheat (Hereward) damage (100=total damage to plant; 0=no damage to plant). An outline of the steps: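 Wheat plants grown 8 days in glasshouse (24/16° C. day/night, 14 h light, 65% humidity) were sprayed post-emergence with compound in acetone/water (50:50) containing 0.5% Tween 20, no safener. Damage scored 13 days later, 0 = none to 100 = total.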

Test [21] concerns Alopecurus myosuroides (ALOMY). Description: Example B pre-emergence herbicidal test, ALOMY. The conditions noted are these: Alopecurus myosuroides, 312 h, rate 250 g/ha, evaluated after 13 days, 100=total damage to plant, 0=no damage to plant. The method, boiled down:
as §3

The subject of test [22] is Echinochloa crus-galli (ECHCG). Description: Example B post-emergence herbicidal test, ECHCG. The conditions noted are these: Echinochloa crus-galli, 312 h, rate 250 g/ha, evaluated after 13 days, scale 0-100, read-out: Post-emergence activity ECHCG (100=total damage to plant; 0=no damage to plant). The method, boiled down:
as §2

As for `CCc1cc(C)cc(CC)c1C1C(=O)CC(CC2CCOCC2)C1=O` (stereo not shown) [Compound T1], the “Post-Emergence Activity ALOMY (100=total damage to plant; 0=no damage to plant)” value in test [1] (rate 125 g/ha) was found to be 100. For the same molecule, the “Post-Emergence Activity ECHCG (100=total damage to plant; 0=no damage to plant)” value in test [2] (rate 125 g/ha) is listed as 100. Moreover, in [3], the “Pre-Emergence Activity DIGSA (100=total damage to plant; 0=no damage to plant)” value came to 100. In the test with Avena fatua (AVEFA) [4], the “Pre-Emergence Activity AVEFA (100=total damage to plant; 0=no damage to plant)” value amounted to 90. The “Post-Emergence Activity DIGSA (100=total damage to plant; 0=no damage to plant)” value in test [5] (rate 125 g/ha) is recorded as 100. Besides, in the test on Lolium perenne (LOLPE) [6] (rate 125 g/ha), the “Post-Emergence Activity LOLPE (100=total damage to plant; 0=no damage to plant)” value was found to be 100. Besides, the “Post-Emergence Activity AVEFA (100=total damage to plant; 0=no damage to plant)” value with Avena fatua (AVEFA) [7] (rate 125 g/ha) is given as 90. In the test on Setaria faberi (SETFA) [8] (rate 125 g/ha), the “Post-Emergence Activity SETFA (100=total damage to plant; 0=no damage to plant)” value worked out at 70. Besides, the “Pre-Emergence Activity ECHCG (100=total damage to plant; 0=no damage to plant)” value in test [9] is 80. Besides, the “Pre-Emergence Activity SETFA (100=total damage to plant; 0=no damage to plant)” value in the test on Setaria faberi (SETFA) [10] was determined as 70. Further, in the test on Lolium perenne (LOLPE) [11], the “Pre-Emergence Activity LOLPE (100=total damage to plant; 0=no damage to plant)” value is given as 100. In addition, the “Pre-Emergence Activity ALOMY (100=total damage to plant; 0=no damage to plant)” value in [12] is 100.

With `CCc1ccc(-c2ccc(Cl)cc2)cc1C1C(=O)CC(CC2CCOCC2)C1=O` (stereo not shown) [Compound T2], the “Post-Emergence Activity ALOMY (100=total damage to plant; 0=no damage to plant)” value in [1] (rate 125 g/ha) came out at 80. Besides, the “Post-Emergence Activity ECHCG (100=total damage to plant; 0=no damage to plant)” value in test [2] (rate 125 g/ha) is reported as 100. Moreover, in [3], the “Pre-Emergence Activity DIGSA (100=total damage to plant; 0=no damage to plant)” value was determined as 80. Also, the “Pre-Emergence Activity AVEFA (100=total damage to plant; 0=no damage to plant)” value with Avena fatua (AVEFA) [4] stood at 10. Further, the “Post-Emergence Activity DIGSA (100=total damage to plant; 0=no damage to plant)” value in test [5] (rate 125 g/ha) worked out at 100. Also, the “Post-Emergence Activity LOLPE (100=total damage to plant; 0=no damage to plant)” value in the test with Lolium perenne (LOLPE) [6] (rate 125 g/ha) is recorded as 20. Besides, the “Post-Emergence Activity AVEFA (100=total damage to plant; 0=no damage to plant)” value with Avena fatua (AVEFA) [7] (rate 125 g/ha) came out at 40. In the test on Setaria faberi (SETFA) [8] (rate 125 g/ha), the “Post-Emergence Activity SETFA (100=total damage to plant; 0=no damage to plant)” value turned out to be 100. Besides, the “Pre-Emergence Activity ECHCG (100=total damage to plant; 0=no damage to plant)” value in test [9] came out at 70. Further, the “Pre-Emergence Activity SETFA (100=total damage to plant; 0=no damage to plant)” value in the test on Setaria faberi (SETFA) [10] came out at 70. Also, the “Pre-Emergence Activity LOLPE (100=total damage to plant; 0=no damage to plant)” value with Lolium perenne (LOLPE) [11] is listed as 90. Further, the “Pre-Emergence Activity ALOMY (100=total damage to plant; 0=no damage to plant)” value in test [12] is listed as 70.

For `Cc1cc(C)c(C2C(=O)C/C(=C\C3CCOCC3)C2=O)c(C)c1` (stereo not shown) [Compound T8], the pest or weed control at 250 g/ha (in the test with Lolium perenne (LOLPE) [13]; with Avena fatua (AVEFA) [15]; with Lolium perenne (LOLPE) [16]; in test [17]; in [18]; with Avena fatua (AVEFA) [19]) was 100% in each case. The pest or weed control at 250 g/ha in [21] and in [22] was 100% in each case. The “Post-Emergence Activity ALOMY (100=total damage to plant; 0=no damage to plant)” value in test [1] (rate 250 g/ha) was found to be 100. The “Post-Emergence Activity ECHCG (100=total damage to plant; 0=no damage to plant)” value in test [2] (rate 250 g/ha) is on record as 100. In test [14], the “Winter Wheat (Hereward) + cloquintocet mexyl damage (100=total damage to plant; 0=no damage to plant)” value was 80. Also, the “Post-Emergence Activity DIGSA (100=total damage to plant; 0=no damage to plant)” value in test [5] (rate 250 g/ha) is reported as 80. In addition, in test [20], the crop damage to winter wheat at 250 g/ha came to 90%. Further, in the test on Lolium perenne (LOLPE) [6] (rate 250 g/ha), the “Post-Emergence Activity LOLPE (100=total damage to plant; 0=no damage to plant)” value is on record as 100. Also, the “Post-Emergence Activity AVEFA (100=total damage to plant; 0=no damage to plant)” value with Avena fatua (AVEFA) [7] (rate 250 g/ha) amounted to 90. Besides, the “Post-Emergence Activity SETFA (100=total damage to plant; 0=no damage to plant)” value in the test on Setaria faberi (SETFA) [8] (rate 250 g/ha) turned out to be 100.
